Test results reported in the NIST ThermoML archive (doi:10.1016/j.fluid.2005.01.012).
± gives the expanded uncertainty stated by the source.

assay: refractive index (Na D-line) (dimensionless); conditions: 293.1 K; 101.33 kPa; Liquid; Standard Abbe refractometry

Going from CCCCCCCCCCCC [dodecane] to CCCCCCCCCCCCCC [tetradecane], the refractive index rises from 1.422 ± 0.0008 to 1.4291 ± 0.0008.

First: CCCc1ccccc1 [propylbenzene]
Second: CCCCCCCCCCCCCCCCC [heptadecane]
The refractive index of the first is higher: 1.4915 ± 0.0008 for the first, 1.4362 ± 0.0008 for the second.

In the case of CN1CCCC1=O [N-methylpyrrolidone], the refractive index is reported as 1.4696 ± 0.0008.
